Measurements as given in US20120172413A1, “INCREASING LIFESPAN BY MODULATING CRTC EXPRESSION OR LOCALIZATION, AND METHODS OF SCREENING FOR MODULATORS OF SAME” (THE SALK INSTITUTE FOR BIOLOGICAL STUDIES, priority 2009, published 2012).
“Also recorded” adds a separate entry of the source. Counter-ions that a name gives are not always drawn.

How the values were obtained:
[1] = system: CRTC-1::RFP localization in C. elegans intestinal cells; test: CRTC-1::RFP localization during tricaine time course (microscopy); assay type: in vivo
Method: Except for tricaine time course experiments, worms were in 5 μl anesthetic mounted on 2% agarose pads on glass slides under glass cover slips. All photos were taken using a Zeiss Axiovert microscope & Axiocam. Pictures in FIGS. 2a and 3b used apotome optical sectioning. For the tricaine experiments (FIG. 4a&b), L4 worms were placed in wells of a 96 well plate in 100 μl of tetramisole/M9 with or without tricaine (2 mg/ml). Pictures were taken during time course through the 96 well plate.

[2] = system: CRTC-1::RFP localization in intestinal cells; test: Kinase redundancy assay: CRTC-1::RFP localization after tricaine treatment and removal; assay type: in vivo, C. elegans
Method: Worms were subjected to RNAi for AMPK family kinases from hatch. 24 hours post L4 worms were then picked into M9 with tricaine (2 mg/ml) in wells of a […]. Worms were left on a rotational shaker at 20° C. for 2 hours. Using a glass pipette (Mair, W. A simple yet effective method to manipulate C. elegans in liquid. Worm Breeders Gazette 18 (2009)), worms were then placed onto NG plates seeded with E. coli (0P50). When tricaine solution had evaporated (approx 20 min), worms were picked onto fresh OP50 plates, 5 worms per plate. […] Time=0 was when moved to fresh OP50 plates.

[3] = aak-1 (tm1944), aak-2 (ok524) mutants (AMPK null)

Compound | effect on CRTC-1 localization ([1]; 0.1 mg/ml in M9 as anesthetic, pilot experiments) | CRTC-1::RFP localization ([1]; CRTC-1::RFP with calcineurin (TAX-6) binding site mutated, 60 minutes of tricaine treatment) | CRTC-1::RFP localization ([1]; tax-6 (ok2065) deletion mutant, up to 2 hours of tricaine treatment) | CRTC-1::RFP localization ([1]; wild type background, intestinal cells, tricaine (2 mg/ml) in M9) | time to CRTC-1::RFP nuclear localization ([1]; wild type background, tricaine added in M9) | re-location of CRTC-1::RFP to the cytosol upon drug removal [2, 3] | tricaine-induced nuclear localization of CRTC-1::RFP [2, 3] | re-location of CRTC-1::RFP to the cytosol upon drug removal ([2]; aak-1 (tm1944), aak-2 (ok524) mutants (AMPK null), listed as Tricaine) | reversibility of CRTC-1 nuclear localization after drug removal ([2]; wild type background)
c1ccc(C2CN3CCSC3=N2)cc1 (stereo not drawn) [tetramisole hydrochloride] | no effect | – | – | – | – | – | – | – | –
CCOC(=O)c1cccc(N)c1 [tricaine] | – | did not shuttle into the nucleus; also recorded: no effect | invariably cytosolic; also recorded: does not respond | rapid nuclear localization | ≤ 30 min | relocated to the cytoplasm | expedited | delayed | reversible within two hours
